These are literature values, as cited in patent US5089474A, “Novel microproteins” (Roussel Uclaf, priority 1989, dated 1992).

The series concerns trypsin. Particulars: statement in words on the known EETI II; cited from earlier work.

EETI II: the “property of inhibiting trypsin” value is “inhibiting trypsin”.
